pIC50: −log10 of the molar value. The source made the active and inactive calls. No cut-off for these calls is given here.
What was measured:
[1] = target: T1, Amine oxidase [copper-containing] 3 (Bos taurus, UniProt Q9TTK6); test: Inhibition of bovine plasma VAP-1 using 6-(5-Pheny1-2H-tetrazol-2-yl)hexan-1-amine as substrate preincubated with enzyme for 15 mins followed by substrate addition measured after 30 mins by UV-HPLC analysis; format: cell-free
T1 sequence (Q9TTK6 whole entry): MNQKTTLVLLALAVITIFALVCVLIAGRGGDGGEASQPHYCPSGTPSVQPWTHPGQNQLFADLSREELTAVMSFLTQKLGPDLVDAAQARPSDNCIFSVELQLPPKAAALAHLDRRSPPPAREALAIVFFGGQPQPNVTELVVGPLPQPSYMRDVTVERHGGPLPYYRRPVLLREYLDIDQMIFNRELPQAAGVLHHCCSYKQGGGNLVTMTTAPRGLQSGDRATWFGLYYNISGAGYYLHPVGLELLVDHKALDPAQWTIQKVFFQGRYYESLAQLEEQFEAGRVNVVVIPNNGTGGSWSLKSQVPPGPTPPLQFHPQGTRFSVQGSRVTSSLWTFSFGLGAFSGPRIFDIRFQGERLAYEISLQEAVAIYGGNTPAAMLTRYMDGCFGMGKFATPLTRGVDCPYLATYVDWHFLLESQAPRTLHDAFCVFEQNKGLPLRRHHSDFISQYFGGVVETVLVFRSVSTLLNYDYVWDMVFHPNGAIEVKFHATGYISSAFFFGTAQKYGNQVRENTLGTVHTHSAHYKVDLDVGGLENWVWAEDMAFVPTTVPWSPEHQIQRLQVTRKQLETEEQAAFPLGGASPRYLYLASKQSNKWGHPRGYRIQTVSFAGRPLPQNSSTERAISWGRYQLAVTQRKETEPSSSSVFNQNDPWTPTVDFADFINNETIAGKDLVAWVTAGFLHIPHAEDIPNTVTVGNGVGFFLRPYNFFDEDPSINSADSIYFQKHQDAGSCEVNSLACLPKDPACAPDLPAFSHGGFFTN

[2] = target: T1, Amine oxidase [copper-containing] 3; test: Inhibition of bovine plasma VAP-1 using 6-(5-Pheny1-2H-tetrazol-2-yl)hexan-1-amine as substrate measured after 30 mins by UV-HPLC analysis; format: cell-free
[3] = target: T2, VAP-1 (amine oxidase [copper-containing] 3) (Bos taurus, UniProt Q9TTK6); test: Stability of compound assessed as bovine plasma VAP-1 mediated drug degradation by measuring parent compound remaining at 10 uM incubated for 15 mins by HPLC-MS analysis; format: ADME, cell-free; details: cattle, bovine plasma VAP-1 (amine oxidase [copper-containing] 3), read-out: Stability
T2 sequence (Q9TTK6 whole entry): T1 sequence (Q9TTK6 whole entry)

[4] = target: T2, VAP-1 (amine oxidase [copper-containing] 3); test: Stability of compound assessed as bovine plasma VAP-1 mediated drug degradation by measuring parent compound remaining at 10 uM incubated for 30 mins by HPLC-MS analysis; format: ADME, cell-free; details: cattle, bovine plasma VAP-1 (amine oxidase [copper-containing] 3), read-out: Stability
[5] = target: T2, VAP-1 (amine oxidase [copper-containing] 3); test: Stability of compound assessed as bovine plasma VAP-1 mediated drug degradation by measuring parent compound remaining at 10 uM incubated for 60 mins by HPLC-MS analysis; format: ADME, cell-free; details: cattle, bovine plasma VAP-1 (amine oxidase [copper-containing] 3), read-out: Stability
[6] = target: T2, VAP-1 (amine oxidase [copper-containing] 3); test: Stability of compound assessed as bovine plasma VAP-1 mediated drug degradation by measuring parent compound remaining at 10 uM incubated for 120 mins by HPLC-MS analysis; format: ADME, cell-free; details: cattle, bovine plasma VAP-1 (amine oxidase [copper-containing] 3), read-out: Stability
[7] = target: T3, Amine oxidase [copper-containing] 3 (Bos taurus) (UniProt Q9TTK6); test: Inhibition of bovine plasma VAP-1 using 6-(5-Pheny1-2H-tetrazol-2-yl)hexan-1-amine as substrate at 10 uM preincubated with enzyme for 15 mins followed by substrate addition measured after 30 mins by UV-HPLC analysis relative to control; format: cell-free; details: time 45.0 min
T3 sequence (whole entry): T1 sequence (Q9TTK6 whole entry)

[8] = target: T3, Amine oxidase [copper-containing] 3 (Bos taurus); test: Inhibition of bovine plasma VAP-1 using 6-(5-Pheny1-2H-tetrazol-2-yl)hexan-1-amine as substrate at 10 uM measured after 30 mins by UV-HPLC analysis relative to control; format: cell-free
[9] = target: T4, Amine oxidase [copper-containing] 3 (Homo sapiens, UniProt Q16853); test: Inhibition of human plasma VAP-1 using 6-(5-Pheny1-2H-tetrazol-2-yl)hexan-1-amine as substrate preincubated with enzyme for 15 mins followed by substrate addition measured after 120 mins by UV-HPLC analysis; format: cell-free
T4 sequence (Q16853 whole entry): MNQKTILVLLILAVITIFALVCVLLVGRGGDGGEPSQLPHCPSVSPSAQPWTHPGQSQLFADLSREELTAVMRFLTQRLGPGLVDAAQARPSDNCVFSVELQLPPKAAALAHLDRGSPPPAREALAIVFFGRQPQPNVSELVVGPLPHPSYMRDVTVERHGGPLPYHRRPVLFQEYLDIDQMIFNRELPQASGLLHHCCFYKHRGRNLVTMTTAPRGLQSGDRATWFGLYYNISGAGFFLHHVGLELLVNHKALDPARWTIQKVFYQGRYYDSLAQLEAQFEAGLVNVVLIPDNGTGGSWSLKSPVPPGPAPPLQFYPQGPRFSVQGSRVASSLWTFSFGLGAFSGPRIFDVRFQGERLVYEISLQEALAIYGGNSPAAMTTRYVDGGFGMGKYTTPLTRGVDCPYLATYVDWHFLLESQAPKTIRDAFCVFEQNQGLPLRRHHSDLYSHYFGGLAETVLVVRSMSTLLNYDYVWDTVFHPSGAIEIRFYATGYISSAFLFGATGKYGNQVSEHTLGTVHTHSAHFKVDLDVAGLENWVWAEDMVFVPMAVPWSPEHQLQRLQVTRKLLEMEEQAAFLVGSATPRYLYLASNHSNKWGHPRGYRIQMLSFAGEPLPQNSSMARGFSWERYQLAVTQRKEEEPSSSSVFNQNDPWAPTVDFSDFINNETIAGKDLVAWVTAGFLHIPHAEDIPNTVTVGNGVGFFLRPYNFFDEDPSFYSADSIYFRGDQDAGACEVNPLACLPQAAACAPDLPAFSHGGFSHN

[10] = Selectivity index, ratio of IC50 for human plasma VAP-1 to IC50 for bovine plasma VAP-1
[11] = target: T1, Amine oxidase [copper-containing] 3; test: Stability of compound assessed as bovine plasma VAP-1 mediated drug degradation by measuring formation of aldehyde metabolite at 1 to 10 uM incubated for 60 to 120 mins by HPLC-MS analysis; format: ADME, cell-free; details: cattle, dose lower 1 µM, time lower 60 min, dose upper 10 µM, time upper 120 min
[12] = target: T2, VAP-1 (amine oxidase [copper-containing] 3); test: Stability of compound assessed as bovine plasma VAP-1 mediated drug degradation by measuring parent compound remaining at 1 uM incubated for 15 mins by HPLC-MS analysis; format: ADME, cell-free; details: cattle, bovine plasma VAP-1 (amine oxidase [copper-containing] 3), read-out: Stability
[13] = target: T2, VAP-1 (amine oxidase [copper-containing] 3); test: Stability of compound assessed as bovine plasma VAP-1 mediated drug degradation by measuring parent compound remaining at 1 uM incubated for 30 mins by HPLC-MS analysis; format: ADME, cell-free; details: cattle, bovine plasma VAP-1 (amine oxidase [copper-containing] 3), read-out: Stability
[14] = target: T2, VAP-1 (amine oxidase [copper-containing] 3); test: Stability of compound assessed as bovine plasma VAP-1 mediated drug degradation by measuring parent compound remaining at 1 uM incubated for 60 mins by HPLC-MS analysis; format: ADME, cell-free; details: cattle, bovine plasma VAP-1 (amine oxidase [copper-containing] 3), read-out: Stability
[15] = target: T2, VAP-1 (amine oxidase [copper-containing] 3); test: Stability of compound assessed as bovine plasma VAP-1 mediated drug degradation by measuring parent compound remaining at 1 uM incubated for 120 mins by HPLC-MS analysis; format: ADME, cell-free; details: cattle, bovine plasma VAP-1 (amine oxidase [copper-containing] 3), read-out: Stability
[16] = Selectivity index, ratio of IC50 for porcine kidney DAO to IC50 for bovine plasma VAP-1

Row | Structure (SMILES) | pIC50 [1] | pIC50 [2] | remaining at 0.25 h, 10 µM [3] [%] | remaining at 0.5 h, 10 µM [4] [%] | remaining at 2 h, 10 µM [6] [%] | inhibition [7] [%] | inhibition [8] | further results
1 | NCC(=O)NCc1ccc(Cn2nnc(-c3ccccc3)n2)cc1 | 5.23 | 5.04 | 89 | 82 | 45 | – | – | remaining at 1 h, 10 µM [5]: 69%
2 | CS(=O)(=O)c1ccc(-c2nnn(CCCCCCNC(=O)CN)n2)cc1 | 5.35 | 5.64 | 82 | 63 | < 5 | – | – | remaining at 1 h, 10 µM [5]: 23%; pIC50 [9]: 4.54; Ratio IC50 [10]: 2; Stability [11]: Unstable
3 | NCC(=O)NCCCCn1nnc(-c2ccccc2)n1 | < 5.00 | < 5.00 | – | – | – | 29 | 14% | –
4 | NCC(=O)NCCCCCCn1nnc(-c2cccnc2)n1 | < 5.00 | < 5.00 | – | – | – | 45 | 44% | –
5 | NCC(=O)NCCCCCCn1nnc(-c2ccc(C(N)=O)cc2)n1 | 5.28 | 5.40 | – | – | – | – | – | –
6 | NCC(=O)NCCCCCCn1nnc(-c2ccsc2)n1 | 5.17 | 5.20 | – | – | – | – | – | –
7 | NCCCCCCn1nnc(-c2ccccc2)n1 | – | – | < 5 | < 5 | < 5 | – | – | remaining at 1 h, 10 µM [5]: < 5%
8 | NCC(=O)NCCCCCCn1nnc(-c2cccs2)n1 | 5.11 | 5.25 | – | – | – | – | – | –
9 | NCC(=O)N1CCC(CCCn2nnc(-c3ccccc3)n2)CC1 | < 5.00 | < 5.00 | – | – | – | 18 | 19% | –

Further lines, with some results ahead:

Row | pIC50 [1] | pIC50 [2] | remaining at 0.25 h, 10 µM [3] [%] | remaining at 0.5 h, 10 µM [4] [%] | remaining at 2 h, 10 µM [6] [%] | inhibition [7] [%] | inhibition [8] | Structure (SMILES) | further results
10 | < 5.00 | < 5.00 | – | – | – | 37 | 42% | NCC(=O)NCCCCCCn1ccc(-c2ccccc2)n1 | –
11 | 5.25 | 5.12 | – | – | – | – | – | NCC(=O)NCCCCCCn1nnc(-c2ccc(N3CCOCC3)cc2)n1 | –
12 | 7.57 | 6.00 | > 95 | > 95 | > 95 | – | – | CC(C)(C)NC(=O)c1ccc(OC/C(=C/F)CN)cc1 | remaining at 1 h, 10 µM [5]: > 95%; remaining at 0.25 h, 1 µM [12]: > 95%; remaining at 0.5 h, 1 µM [13]: > 95%; remaining at 1 h, 1 µM [14]: > 95%; remaining at 2 h, 1 µM [15]: 90%
13 | – | – | 93 | 95 | 81 | – | – | Cl.N#Cc1ccc(-c2nnn(Cc3cccc(CNC(=O)CN)c3)n2)cc1 | remaining at 0.25 h, 1 µM [12]: 74%; remaining at 0.5 h, 1 µM [13]: 49%; remaining at 1 h, 1 µM [14]: < 5%; remaining at 2 h, 1 µM [15]: < 5%; Ratio IC50 [10]: 2; Ratio IC50 [16]: 50; Stability [11]: Stable
14 | < 5.00 | – | – | – | – | 31 | inactive | NCC(=O)NCCn1nnc(-c2ccccc2)n1 | –
15 | < 5.00 | 5.03 | – | – | – | 45 | – | NCC(=O)NCCCCCn1nnc(-c2ccccc2)n1 | –
16 | 5.15 | 5.21 | – | – | – | – | – | NCC(=O)NCCCCCCn1ncc(-c2ccccc2)n1 | –

From ChEMBL document CHEMBL5523671, “ω-(5-Phenyl-2H-tetrazol-2-yl)alkyl-substituted glycine amides and related compounds as inhibitors of the amine oxidase vascular adhesion protein-1 (VAP-1)” (Bioorg Med Chem, 2024)
